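How tested: cells in 96-well plates exposed to compound for 48 hours at five concentrations. GI50 marks 50% less growth.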 The source made the active and inactive calls. No stated cut-off is given here; in the data, active = GI50 up to about 1.1 µM and inactive = higher.
Tests used:
Experiment in all cases: NCI-60 cell line screen, 48 h
RPMI-8226 = system: RPMI-8226
NCI-H226 = system: NCI-H226
EKVX = system: EKVX
HOP-62 = system: HOP-62
MDA-MB-435 = system: MDA-MB-435
DU-145 = system: DU-145
UACC-62 = system: UACC-62
SF-295 = system: SF-295
NCI-H522 = system: NCI-H522
A498 = system: A498
OVCAR-4 = system: OVCAR-4
SK-MEL-28 = system: SK-MEL-28
RXF 393 = system: RXF 393
Malme-3M = system: Malme-3M
COLO 205 = system: COLO 205
OVCAR-5 = system: OVCAR-5
IGROV-1 = system: IGROV-1
MDA-MB-231 = system: MDA-MB-231
SNB-19 = system: SNB-19
HCC 2998 = system: HCC 2998

Row | Compound | GI50 (RPMI-8226) | GI50 (NCI-H226) | GI50 (EKVX) | GI50 (HOP-62) | GI50 (MDA-MB-435) | GI50 (DU-145) | GI50 (UACC-62) | GI50 (SF-295) | GI50 (NCI-H522) | GI50 (A498) | GI50 (OVCAR-4) | GI50 (SK-MEL-28) | GI50 (RXF 393) | GI50 (Malme-3M) | GI50 (COLO 205) | GI50 (OVCAR-5) | GI50 (IGROV-1) | GI50 (MDA-MB-231) | GI50 (SNB-19) | GI50 (HCC 2998)
1 | COc1nc2ccc(Cl)c(C(O)c3ccccc3)c2nc1OC (stereo unspecified) | 14.1 µM (inactive) | 16.3 µM (inactive) | 18.2 µM (inactive) | 16.5 µM (inactive) | 12.5 µM (inactive) | 32.3 µM (inactive) | 17.1 µM (inactive) | 10.5 µM (inactive) | 15.7 µM (inactive) | 18.6 µM (inactive) | 26.6 µM (inactive) | 35.5 µM (inactive) | 14.3 µM (inactive) | 32.9 µM (inactive) | 18.1 µM (inactive) | 29 µM (inactive) | 24.8 µM (inactive) | 15.4 µM (inactive) | 24.9 µM (inactive) | 
2 | Cc1cc(C)cc(Nc2nnc3n2S(=O)(=O)c2cc(C#N)c(Cl)cc2S3)c1 |  | 10.6 µM (inactive) | 8.67 µM (inactive) | 2.77 µM (inactive) | 3.03 µM (inactive) | 3.14 µM (inactive) | 3.97 µM (inactive) | 2.84 µM (inactive) | 1.87 µM (inactive) | 16.3 µM (inactive) | 7.98 µM (inactive) | 3.21 µM (inactive) | 1.59 µM (inactive) | 1.13 µM (inactive) | 10.9 µM (inactive) | 2.83 µM (inactive) | 0.505 µM (active) | 3.13 µM (inactive) | 6.78 µM (inactive) | 
3 | COC(=O)C1(N2CCOCC2)CCC([C@@H](c2ccccc2)C(C)[N+](=O)[O-])C1 (stereo partly specified) | 13 µM (inactive) | > 100 µM (inactive) | > 100 µM (inactive) | > 100 µM (inactive) | > 100 µM (inactive) | 19.7 µM (inactive) | > 100 µM (inactive) | > 100 µM (inactive) |  | > 100 µM (inactive) | 55.5 µM (inactive) | > 100 µM (inactive) |  | > 100 µM (inactive) | 64.6 µM (inactive) | > 100 µM (inactive) |  | > 100 µM (inactive) | > 100 µM (inactive) | > 100 µM (inactive)
4 | O=C1CC(CC(O)C(O)CO)CC(=O)N1 (stereo unspecified) | > 100 µM (inactive) | > 100 µM (inactive) | > 100 µM (inactive) | > 100 µM (inactive) | > 100 µM (inactive) | > 100 µM (inactive) |  | > 100 µM (inactive) | > 100 µM (inactive) | > 100 µM (inactive) |  | > 100 µM (inactive) |  | > 100 µM (inactive) |  |  | > 100 µM (inactive) | > 100 µM (inactive) | > 100 µM (inactive) | > 100 µM (inactive)
5 | S=C1NC(c2ccccc2)NC(c2ccccc2)S1 (stereo unspecified) | > 100 µM (inactive) | > 100 µM (inactive) | > 100 µM (inactive) | 74.8 µM (inactive) | > 100 µM (inactive) | > 100 µM (inactive) | 55 µM (inactive) | > 100 µM (inactive) | 41.6 µM (inactive) | > 100 µM (inactive) | > 100 µM (inactive) | > 100 µM (inactive) | > 100 µM (inactive) | > 100 µM (inactive) | > 100 µM (inactive) | > 100 µM (inactive) | > 100 µM (inactive) | > 100 µM (inactive) | 55.5 µM (inactive) | 
6 | COc1ccc(/C=C2\CCC(C)C3C2=NN(c2ccccc2)C3c2ccc(OC)c(OC)c2)cc1OC (stereo unspecified) | 1.23 µM (inactive) | 2.69 µM (inactive) | 1.74 µM (inactive) |  | 3.64 µM (inactive) | 3.01 µM (inactive) | 3.43 µM (inactive) | 2.64 µM (inactive) |  | 3.42 µM (inactive) |  | 4.97 µM (inactive) | 3.23 µM (inactive) | 3.08 µM (inactive) | 4.22 µM (inactive) | 2.65 µM (inactive) | 2.32 µM (inactive) | 4.19 µM (inactive) | 8 µM (inactive) | 
7 | CC(=O)c1[nH]c(NCc2ccccc2)c(C(=S)Nc2ccccc2)c1N |  | 18.2 µM (inactive) | 27.1 µM (inactive) | 19.9 µM (inactive) | 18.2 µM (inactive) | 28.8 µM (inactive) | 16.6 µM (inactive) | 25.6 µM (inactive) | 0.0383 µM (active) | 17.9 µM (inactive) | 26.4 µM (inactive) | 24.2 µM (inactive) | 18.9 µM (inactive) | 19.7 µM (inactive) | 28.4 µM (inactive) | 24.3 µM (inactive) | 0.317 µM (active) | 15.1 µM (inactive) | 34.3 µM (inactive) | 20.5 µM (inactive)
8 | COc1ccc(/C=N/c2ccc(-c3nc4ccccc4[nH]3)cc2)cc1OC | > 100 µM (inactive) | > 100 µM (inactive) | > 100 µM (inactive) | > 100 µM (inactive) | > 100 µM (inactive) | > 100 µM (inactive) |  | > 100 µM (inactive) | > 100 µM (inactive) | > 100 µM (inactive) | > 100 µM (inactive) | > 100 µM (inactive) | 97.9 µM (inactive) | > 100 µM (inactive) | > 100 µM (inactive) | > 100 µM (inactive) | 49.3 µM (inactive) | 68.4 µM (inactive) | > 100 µM (inactive) | 
